The record followed here is patent publication US20260022142A1, “MACROCYCLIC IMMUNOMODULATORS” (Bristol-Myers Squibb Company, priority 2022, published 2026).

Bridge positions count the residues as written; N and C are the ends. Square brackets hold non-standard residues; d marks the D form. Peptide text beside a SMILES is read from it. * marks the point of attachment. Phe(4-CH2CH2COOH) = N[C@@H](Cc1ccc(CCC(=O)O)cc1)C(=O)O; Trp(βS-Me) = C[C@@H](c1c[nH]c2ccccc12)[C@H](N)C(=O)O; Phe(4-CONH2) = NC(=O)c1ccc(C[C@H](N)C(=O)O)cc1; Phe(4-COOH) = N[C@@H](Cc1ccc(C(=O)O)cc1)C(=O)O; Bip = N[C@@H](Cc1ccc(-c2ccccc2)cc1)C(=O)O; Phe(4-NH2) = Nc1ccc(C[C@H](N)C(=O)O)cc1; Phe(3-F) = N[C@@H](Cc1cccc(F)c1)C(=O)O; Phe(3-Me) = Cc1cccc(C[C@H](N)C(=O)O)c1; Abu(3S-NH2) = C[C@H](N)[C@H](N)C(=O)O; His(π-Me) = Cn1cncc1C[C@H](N)C(=O)O; Val(3-OH) = CC(C)(O)[C@H](N)C(=O)O; Val(3-F) = CC(C)(F)[C@H](N)C(=O)O; 4Pal = N[C@@H](Cc1ccncc1)C(=O)O; Cha = N[C@@H](CC1CCCCC1)C(=O)O; Carboxymethyl = O=C(O)C*; Orn = NCCC[C@H](N)C(=O)O; Aun = NCCCCCCCCCCC(=O)O; Dab = NCC[C@H](N)C(=O)O; Ac3c = NC1(C(=O)O)CC1

In one assay the target is T1, PD-1/PD-L1 interaction (PE-labeled human PD-L1-Ig binding to Jurkat cell line over-expressing human PD-1) (Homo sapiens, UniProt Q15116).
T1 construct: expressed in transfected cells; host or cells: Jurkat
T1 sequence (Q15116 25-288): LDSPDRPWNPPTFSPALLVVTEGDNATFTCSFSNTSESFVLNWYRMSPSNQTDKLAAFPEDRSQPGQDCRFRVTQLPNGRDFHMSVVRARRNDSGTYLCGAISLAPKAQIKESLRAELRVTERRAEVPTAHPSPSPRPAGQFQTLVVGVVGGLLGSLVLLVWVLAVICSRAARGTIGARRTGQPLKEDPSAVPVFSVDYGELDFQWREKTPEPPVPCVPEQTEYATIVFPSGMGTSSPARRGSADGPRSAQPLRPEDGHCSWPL
Kind of assay: Jurkat-PD-1 Cell Binding High-Content Screening Assay (CBA). It counts as cell-based. As to conditions: Jurkat cell line over-expressing human PD-1; PE-labeled PD-L1-Ig 20 nM final; read-out: Jurkat hPD1-PDL1 IC50. An outline of the steps: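 Jurkat cells over-expressing human PD-1 (8×10^3 per well, DMEM/10% FCS) preincubated with compound 2 h at 37° C, then PE-labeled human PD-L1-Ig (20 nM final) added for 1 h. Cells fixed with paraformaldehyde, Hoechst-stained, and bound fluorescence quantified by high-content imaging.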
`Cc1cccc(C[C@@H]2NC(=O)[C@H](CC(=O)O)NC(=O)[C@H](Cc3ccc(OCC(=O)O)cc3)NC(=O)[C@H](CCCNC(=N)N)NC(=O)CSC[C@@H](C(=O)NC3(C(=O)NCCCCCCCCCCC(=O)O)CC3)NC(=O)[C@H](CCCN)NC(=O)[C@H](C(C)C)NC(=O)[C@H](CC3CCCCC3)NC(=O)[C@H](CCN)NC(=O)[C@@H](CC(C)C)NC(=O)[C@H](CCCN)NC(=O)[C@H](Cc3ccc(OCC(=O)O)cc3)NC(=O)[C@H](Cc3ccc(-c4ccccc4)cc3)NC(=O)[C@H](Cc3ccc(OCC(=O)O)cc3)NC2=O)c1` [Compound 2136] ({CH2CO}-RY(Carboxymethyl)D[Phe(3-Me)]Y(Carboxymethyl)[Bip]Y(Carboxymethyl)[Orn][dL][Dab][Cha]V[Orn]C[Ac3c][Aun]-OH; thioether N-14): the IC50 is 0.0031 µM.

In the case of `Cc1cccc(C[C@@H]2NC(=O)[C@H](CC(=O)O)NC(=O)[C@H](Cc3ccc(OCC(=O)O)cc3)NC(=O)[C@H](CCCNC(=N)N)NC(=O)CSC[C@@H](C(=O)NC3(C(=O)NCCCCCCCCCCC(=O)O)CC3)NC(=O)[C@H](CCC(N)=O)NC(=O)[C@H](C(C)C)NC(=O)[C@H](CC3CCCCC3)NC(=O)[C@H](CCN)NC(=O)[C@@H](CC(C)C)NC(=O)[C@H](CCCN)NC(=O)[C@H](Cc3ccc(OCC(=O)O)cc3)NC(=O)[C@H](Cc3ccc(-c4ccccc4)cc3)NC(=O)[C@H](Cc3ccc(OCC(=O)O)cc3)NC2=O)c1` [Compound 2137] ({CH2CO}-RY(Carboxymethyl)D[Phe(3-Me)]Y(Carboxymethyl)[Bip]Y(Carboxymethyl)[Orn][dL][Dab][Cha]VQC[Ac3c][Aun]-OH; thioether N-14), the concentration for half-maximal inhibition (IC50) came out at 0.0091 µM.

In the case of `CC(C)C[C@H]1NC(=O)[C@H](CCCN)NC(=O)[C@H](Cc2ccc(OCC(=O)O)cc2)NC(=O)[C@H](Cc2ccc(-c3ccccc3)cc2)NC(=O)[C@H](Cc2ccc(OCC(=O)O)cc2)NC(=O)[C@H]([C@@H](C)c2c[nH]c3ccccc23)NC(=O)[C@H](CC(=O)O)NC(=O)[C@H](Cc2ccc(OCC(=O)O)cc2)NC(=O)[C@H](CCCNC(=N)N)NC(=O)CSC[C@@H](C(=O)N[C@@H](CCN)C(=O)NCCCCCCCCCCC(=O)O)NC(=O)[C@H]([C@@H](C)O)NC(=O)[C@H](C(C)C)NC(=O)[C@H](CC2CCCCC2)NC(=O)[C@H](CCN)NC1=O` [Compound 2138] ({CH2CO}-RY(Carboxymethyl)D[Trp(βS-Me)]Y(Carboxymethyl)[Bip]Y(Carboxymethyl)[Orn][dL][Dab][Cha]VTC[Dab][Aun]-OH; thioether N-14), the IC50 came to 0.109 µM.

Regarding `Cc1cccc(C[C@@H]2NC(=O)[C@H](CC(=O)O)NC(=O)[C@H](Cc3ccc(OCC(=O)O)cc3)NC(=O)[C@H](CCCNC(=N)N)NC(=O)CSC[C@@H](C(=O)N[C@@H](CCN)C(=O)NCCCCCCCCCCC(=O)O)NC(=O)[C@H]([C@@H](C)O)NC(=O)[C@H](C(C)C)NC(=O)[C@H](CC3CCCCC3)NC(=O)[C@H](CCN)NC(=O)[C@@H](CC(C)C)NC(=O)[C@H](C)NC(=O)[C@H](C(C)(C)O)NC(=O)[C@H](Cc3ccc(-c4ccccc4)cc3)NC(=O)[C@H](Cc3ccc(OCC(=O)O)cc3)NC2=O)c1` [Compound 2139] ({CH2CO}-RY(Carboxymethyl)D[Phe(3-Me)]Y(Carboxymethyl)[Bip][Val(3-OH)]A[dL][Dab][Cha]VTC[Dab][Aun]-OH; thioether N-14), the IC50 turned out to be 0.0211 µM.

Consider `Cc1cccc(C[C@@H]2NC(=O)[C@H](CC(=O)O)NC(=O)[C@H](Cc3ccc(OCC(=O)O)cc3)NC(=O)[C@H](CCCNC(=N)N)NC(=O)CSC[C@@H](C(=O)N[C@@H](CCN)C(=O)NCCCCCCCCCCC(=O)O)NC(=O)[C@H](CCC(N)=O)NC(=O)[C@H](C(C)C)NC(=O)[C@H](CC3CCCCC3)NC(=O)[C@H](CCN)NC(=O)[C@@H](CC(C)C)NC(=O)[C@H](CCCN)NC(=O)[C@H](C(C)(C)O)NC(=O)[C@H](Cc3ccc(-c4ccccc4)cc3)NC(=O)[C@H](Cc3ccc(OCC(=O)O)cc3)NC2=O)c1` [Compound 2140] ({CH2CO}-RY(Carboxymethyl)D[Phe(3-Me)]Y(Carboxymethyl)[Bip][Val(3-OH)][Orn][dL][Dab][Cha]VQC[Dab][Aun]-OH; thioether N-14), for which the IC50 amounted to 0.0116 µM.

On to `Cc1cccc(C[C@@H]2NC(=O)[C@H](CC(=O)O)NC(=O)[C@H](Cc3ccc(OCC(=O)O)cc3)NC(=O)[C@H](Cc3cncn3C)NC(=O)CSC[C@@H](C(=O)N[C@@H](CCN)C(=O)NCCCCCCCCCCC(=O)O)NC(=O)[C@H](CO)NC(=O)[C@H](C(C)(C)O)NC(=O)[C@H](CC3CCCCC3)NC(=O)[C@H](CCN)NC(=O)[C@@H](CC(C)C)NC(=O)[C@H](CCCN)NC(=O)[C@H](Cc3ccc(OCC(=O)O)cc3)NC(=O)[C@H](Cc3ccc(-c4ccccc4)cc3)NC(=O)[C@H](Cc3ccc(OCC(=O)O)cc3)NC2=O)c1` [Compound 2141] ({CH2CO}-[His(π-Me)]Y(Carboxymethyl)D[Phe(3-Me)]Y(Carboxymethyl)[Bip]Y(Carboxymethyl)[Orn][dL][Dab][Cha][Val(3-OH)]SC[Dab][Aun]-OH; thioether N-14), for which the IC50 came to 0.0109 µM.

Consider `Cc1cccc(C[C@@H]2NC(=O)[C@H](CC(=O)O)NC(=O)[C@H](Cc3ccc(OCC(=O)O)cc3)NC(=O)[C@H](Cc3ccncc3)NC(=O)CSC[C@@H](C(=O)N[C@@H](CCN)C(=O)NCCCCCCCCCCC(=O)O)NC(=O)[C@H]([C@H](C)N)NC(=O)[C@H](C(C)(C)O)NC(=O)[C@H](CC3CCCCC3)NC(=O)[C@H](CCN)NC(=O)[C@@H](CC(C)C)NC(=O)[C@H](CCCN)NC(=O)[C@H](Cc3ccc(OCC(=O)O)cc3)NC(=O)[C@H](Cc3ccc(-c4ccccc4)cc3)NC(=O)[C@H](Cc3ccc(OCC(=O)O)cc3)NC2=O)c1` [Compound 2142] ({CH2CO}-[4Pal]Y(Carboxymethyl)D[Phe(3-Me)]Y(Carboxymethyl)[Bip]Y(Carboxymethyl)[Orn][dL][Dab][Cha][Val(3-OH)][Abu(3S-NH2)]C[Dab][Aun]-OH; thioether N-14), for which the IC50 was found to be 0.0091 µM.

Regarding `Cc1cccc(C[C@@H]2NC(=O)[C@H](CC(=O)O)NC(=O)[C@H](Cc3ccc(C(=O)O)cc3)NC(=O)[C@H](Cc3ccncc3)NC(=O)CSC[C@@H](C(=O)N[C@@H](CCN)C(=O)NCCCCCCCCCCC(=O)O)NC(=O)[C@H]([C@@H](C)O)NC(=O)[C@H](C(C)C)NC(=O)[C@H](CC(C)C)NC(=O)[C@H](CCN)NC(=O)[C@@H](CC(C)C)NC(=O)[C@H](CCCN)NC(=O)[C@H](Cc3ccc(OCC(=O)O)cc3)NC(=O)[C@H](Cc3ccc(-c4ccccc4)cc3)NC(=O)[C@H](Cc3ccc(OCC(=O)O)cc3)NC2=O)c1` [Compound 2143] ({CH2CO}-[4Pal][Phe(4-COOH)]D[Phe(3-Me)]Y(Carboxymethyl)[Bip]Y(Carboxymethyl)[Orn][dL][Dab]LVTC[Dab][Aun]-OH; thioether N-14), the IC50 came out at 0.0126 µM.

Regarding `Cc1cccc(C[C@@H]2NC(=O)[C@H](CC(=O)O)NC(=O)[C@H](Cc3ccc(CCC(=O)O)cc3)NC(=O)[C@H](CCN)NC(=O)CSC[C@@H](C(=O)N[C@@H](CCN)C(=O)NCCCCCCCCCCC(=O)O)NC(=O)[C@H](CO)NC(=O)[C@H](C(C)(C)O)NC(=O)[C@H](CC3CCCCC3)NC(=O)[C@H](CCN)NC(=O)[C@@H](CC(C)C)NC(=O)[C@H](CCCN)NC(=O)[C@H](Cc3ccc(OCC(=O)O)cc3)NC(=O)[C@H](Cc3ccc(-c4ccccc4)cc3)NC(=O)[C@H](Cc3cccc(F)c3)NC2=O)c1` [Compound 2144] ({CH2CO}-[Dab][Phe(4-CH2CH2COOH)]D[Phe(3-Me)][Phe(3-F)][Bip]Y(Carboxymethyl)[Orn][dL][Dab][Cha][Val(3-OH)]SC[Dab][Aun]-OH; thioether N-14), the IC50 turned out to be 0.0073 µM.

Consider `Cc1cccc(C[C@@H]2NC(=O)[C@H](CC(=O)O)NC(=O)[C@H](Cc3ccc(OCC(=O)O)cc3)NC(=O)[C@H](CCCNC(=N)N)NC(=O)CSC[C@@H](C(=O)N[C@@H](CCN)C(=O)NCCCCCCCCCCC(=O)O)NC(=O)[C@H](CCC(N)=O)NC(=O)[C@H](C(C)(C)F)NC(=O)[C@H](CC3CCCCC3)NC(=O)[C@H](CCN)NC(=O)[C@@H](CC(C)C)NC(=O)[C@H](CCCN)NC(=O)[C@H](Cc3ccc(OCC(=O)O)cc3)NC(=O)[C@H](Cc3ccc(-c4ccccc4)cc3)NC(=O)[C@H](Cc3ccc(OCC(=O)O)cc3)NC2=O)c1` [Compound 2145] ({CH2CO}-RY(Carboxymethyl)D[Phe(3-Me)]Y(Carboxymethyl)[Bip]Y(Carboxymethyl)[Orn][dL][Dab][Cha][Val(3-F)]QC[Dab][Aun]-OH; thioether N-14), for which the IC50 turned out to be 0.0021 µM.

For `Cc1cccc(C[C@@H]2NC(=O)[C@H](CC(=O)O)NC(=O)[C@H](Cc3ccc(OCC(=O)O)cc3)NC(=O)[C@H](Cc3ccc(N)cc3)NC(=O)CSC[C@@H](C(=O)N[C@@H](CCN)C(=O)NCCCCCCCCCCC(=O)O)NC(=O)[C@H]([C@@H](C)O)NC(=O)[C@H](C(C)C)NC(=O)[C@H](CC3CCCCC3)NC(=O)[C@H](CCN)NC(=O)[C@@H](CC(C)C)NC(=O)[C@H](CCCN)NC(=O)[C@H](Cc3ccc(OCC(=O)O)cc3)NC(=O)[C@H](Cc3ccc(-c4ccccc4)cc3)NC(=O)[C@H](Cc3ccc(OCC(=O)O)cc3)NC2=O)c1` [Compound 2147] ({CH2CO}-[Phe(4-NH2)]Y(Carboxymethyl)D[Phe(3-Me)]Y(Carboxymethyl)[Bip]Y(Carboxymethyl)[Orn][dL][Dab][Cha]VTC[Dab][Aun]-OH; thioether N-14), the IC50 worked out at 0.0172 µM.

Staying with this assay, now noted: Jurkat hPD1-PDL1 IC50, Jurkat cell line over-expressing human PD-1; PE-labeled PD-L1-Ig 20 nM final.
For the molecule `Cc1cccc(C[C@@H]2NC(=O)[C@H](CC(=O)O)NC(=O)[C@H](Cc3ccc(OCC(=O)O)cc3)NC(=O)[C@H](Cc3ccc(C(N)=O)cc3)NC(=O)CSC[C@@H](C(=O)N[C@@H](CCN)C(=O)NCCCCCCCCCCC(=O)O)NC(=O)[C@H]([C@@H](C)O)NC(=O)[C@H](C(C)C)NC(=O)[C@H](CC3CCCCC3)NC(=O)[C@H](CCN)NC(=O)[C@@H](CC(C)C)NC(=O)[C@H](CCCN)NC(=O)[C@H](Cc3ccc(OCC(=O)O)cc3)NC(=O)[C@H](Cc3ccc(-c4ccccc4)cc3)NC(=O)[C@H](Cc3ccc(OCC(=O)O)cc3)NC2=O)c1` [Compound 2146] ({CH2CO}-[Phe(4-CONH2)]Y(Carboxymethyl)D[Phe(3-Me)]Y(Carboxymethyl)[Bip]Y(Carboxymethyl)[Orn][dL][Dab][Cha]VTC[Dab][Aun]-OH; thioether N-14), the IC50 stood at 0.0132 µM.
